Test results from ChEMBL document CHEMBL4715789, “Identification of a Potential Antimalarial Drug Candidate from a Series of 2-Aminopyrazines by Optimization of Aqueous Solubility and Potency across the Parasite Life Cycle” (J Med Chem, 2016).
≈ marks a conversion by molar mass, not a printed value.

Assays:
[1] = Metabolic stability in rat liver microsomes assessed as compound remaining at 0.1 uM measured after 30 mins in presence of cofactor NADPH by LC-MS/MS analysis; assay type: ADME, Microsome; conditions: read-out: Stabilty
[2] = Metabolic stability in human liver microsomes assessed as compound remaining at 0.1 uM measured after 30 mins in presence of cofactor NADPH by LC-MS/MS analysis; assay type: ADME, Microsome; conditions: read-out: Stabilty
Plasmodium berghei [3] = assay: Antiplasmodial activity against Plasmodium berghei ANKA infected in NMRI mouse assessed as reduction in parasitemia at 10 mg/kg, po qd for 4 consecutive days measured at day 7 post infection by flow cytometry analysis; assay type: functional; set-up: scale not given: the % may be the effect or the level left; conditions: time 4 day
Plasmodium berghei [4] = assay: Antiplasmodial activity against Plasmodium berghei ANKA infected in NMRI mouse model assessed as reduction in parasitemia administered orally once a day for 4 consecutive days measured at day 7 post infection by flow cytometry analysis; assay type: functional; conditions: po, 96 h, time 4 day
[5] = Aqueous solubility of compound in pH 6.5 PBS incubated for 2 hrs under shaking condition by shake-flask method based HPLC-DAD analysis; assay type: physicochemical
[6] = target: Voltage-gated inwardly rectifying potassium channel KCNH2 (Homo sapiens, UniProt Q12809); assay: Inhibition of human ERG by IonWorks patch clamp electrophysiology method
Sequence of Voltage-gated inwardly rectifying potassium channel KCNH2 (Q12809 whole entry): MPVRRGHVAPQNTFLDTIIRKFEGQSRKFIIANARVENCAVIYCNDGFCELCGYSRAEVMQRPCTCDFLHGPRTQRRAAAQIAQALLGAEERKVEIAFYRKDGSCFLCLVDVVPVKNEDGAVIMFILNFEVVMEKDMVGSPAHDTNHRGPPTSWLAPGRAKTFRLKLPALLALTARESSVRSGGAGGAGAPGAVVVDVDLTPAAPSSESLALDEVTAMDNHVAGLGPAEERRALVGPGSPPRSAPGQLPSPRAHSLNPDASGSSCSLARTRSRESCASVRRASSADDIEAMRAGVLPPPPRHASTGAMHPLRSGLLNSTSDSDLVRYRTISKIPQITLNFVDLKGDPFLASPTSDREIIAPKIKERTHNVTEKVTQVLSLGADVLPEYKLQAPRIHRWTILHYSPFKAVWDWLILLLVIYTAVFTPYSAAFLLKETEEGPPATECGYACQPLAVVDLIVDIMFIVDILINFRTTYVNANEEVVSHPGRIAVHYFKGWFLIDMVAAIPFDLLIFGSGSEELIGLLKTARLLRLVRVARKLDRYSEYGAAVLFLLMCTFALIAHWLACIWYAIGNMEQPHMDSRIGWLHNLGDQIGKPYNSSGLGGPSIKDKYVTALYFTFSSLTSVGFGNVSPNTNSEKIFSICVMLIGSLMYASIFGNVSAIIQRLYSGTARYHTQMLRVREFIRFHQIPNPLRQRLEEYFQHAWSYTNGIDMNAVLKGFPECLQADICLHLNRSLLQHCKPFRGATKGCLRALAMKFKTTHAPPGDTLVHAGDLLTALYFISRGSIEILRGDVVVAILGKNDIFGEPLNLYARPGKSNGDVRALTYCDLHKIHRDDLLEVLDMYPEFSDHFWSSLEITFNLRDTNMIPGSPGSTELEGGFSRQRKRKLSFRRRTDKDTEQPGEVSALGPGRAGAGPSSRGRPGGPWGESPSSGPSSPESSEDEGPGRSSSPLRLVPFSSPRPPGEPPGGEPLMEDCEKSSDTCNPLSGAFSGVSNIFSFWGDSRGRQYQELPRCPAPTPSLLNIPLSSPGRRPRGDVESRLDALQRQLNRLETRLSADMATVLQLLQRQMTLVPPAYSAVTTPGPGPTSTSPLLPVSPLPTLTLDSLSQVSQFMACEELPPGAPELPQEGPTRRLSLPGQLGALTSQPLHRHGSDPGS

[7] = AUC(app) in NMRI mouse plasma infected with Plasmodium berghei ANKA at 3 mg/kg, po qd for 4 consecutive days and measured post last dose; assay type: ADME, organism-based; conditions: time 4 day
Plasmodium berghei [8] = assay: Antiplasmodial activity against Plasmodium berghei ANKA infected in NMRI mouse model assessed as mean survival days at 10 mg/kg, po qd for 4 consecutive day; assay type: functional; conditions: time 4 day
Plasmodium falciparum [9] = assay: Antiplasmodial activity against Plasmodium falciparum 3D70087/N9 infected in NOD-SCID IL2Rgamma null mouse assessed as reduction in parasitemia administered orally on day 3 to 6 post-infection and measured day 7 post infection by TER-119-PE and […] dye based flow cytometry; assay type: functional; conditions: 3D70087/N9, po, 120 h, time 5 day
Plasmodium falciparum [10] = assay: microbe, parasite or virus in culture; conditions: NF54, Erythrocyte
Description: Antiplasmodial activity against multidrug-sensitive Plasmodium falciparum NF54 infected in human erythrocytes assessed as reduction in [3H]hypoxanthine incorporation preincubated for 48 hrs followed by [3H]hypoxanthine addition and measured after 24 hrs by liquid scintillation counting method

Plasmodium falciparum [11] = assay: Antiplasmodial activity against late stage (IV/V) Plasmodium falciparum NF54 gametocytes incubated for 48 hrs by luciferase reporter gene assay; assay type: functional, organism-based; conditions: NF54, 48 h
[12] = Aqueous solubility of compound in pH 2 0.01M HCl incubated for 2 hrs under shaking condition by shake-flask method based HPLC-DAD analysis; assay type: physicochemical
hERG (KCNH2) = assay: Selectivity ratio of IC50 for inhibition of human ERG by IonWorks patch clamp electrophysiology method to IC50 for antiplasmodial activity against multidrug-sensitive Plasmodium falciparum NF54 infected in human erythrocytes; assay type: toxicity, cell-based; conditions: read-out: Ratio IC50
[13] = Oral bioavailability in Sprague-dawley rat at 15 mg/kg by LC-MS/MS analysis; assay type: ADME, organism-based; conditions: in vivo
Plasmodium berghei [14] = assay: Antiplasmodial activity against luciferase expressing Plasmodium berghei sporozoites infected in human HepG2 cells preincubated with compound for 18 hrs followed by plasmodium infection measured after 48 hrs by bioluminescence assay; assay type: functional, organism-based
[15] = Selectivity index, ratio of IC50 for cytotoxicity against CHO cells by MTT assay to IC50 for antiplasmodial activity against multidrug-sensitive Plasmodium falciparum NF54 infected in human erythrocytes; assay type: toxicity, cell-based; conditions: Chinese hamster, read-out: Ratio IC50
Plasmodium falciparum [16] = assay: microbe, parasite or virus in culture; conditions: K1, Erythrocyte
Description: Antiplasmodial activity against multidrug-resistant Plasmodium falciparum K1 infected in erythrocytes assessed as reduction in [3H]hypoxanthine incorporation preincubated for 48 hrs followed by [3H]hypoxanthine addition and measured after 24 hrs by liquid scintillation counting method

[17] = Apparent average plasma concentration in NMRI mouse plasma infected with Plasmodium berghei ANKA at 3 mg/kg, po qd for 4 consecutive days and measured post last dose; assay type: ADME, organism-based; conditions: in vivo, 96 h, time 4 day
Plasmodium berghei [18] = assay: Antiplasmodial activity against Plasmodium berghei ANKA infected in NMRI mouse model assessed as mean survival days at 3 mg/kg, po qd for 4 consecutive day; assay type: functional; conditions: time 4 day
[19] = Cmax(app) in NMRI mouse plasma infected with Plasmodium berghei ANKA at 3 mg/kg, po qd for 4 consecutive days and measured post last dose; assay type: ADME, organism-based; conditions: time 4 day
[20] = Metabolic stability in mouse liver microsomes assessed as compound remaining at 0.1 uM measured after 30 mins in presence of cofactor NADPH by LC-MS/MS analysis; assay type: ADME, Microsome; conditions: read-out: Stabilty
Plasmodium falciparum [21] = assay: Antimalarial activity against Plasmodium falciparum 3D70087/N9 infected in NOD-SCID IL2Rgamma null mouse assessed as blood AUC level require to show 90% reduction in parasitemia administered orally on day 3 to 6 post-infection and measured day 7 post infection; assay type: functional, organism-based; conditions: time 5.0 day
Plasmodium falciparum [22] = assay: Antiplasmodial activity against early stage (II/III) Plasmodium falciparum NF54 gametocytes incubated for 48 hrs by luciferase reporter gene assay; assay type: functional, organism-based; conditions: NF54, 48 h
Plasmodium berghei [23] = assay: Antiplasmodial activity against Plasmodium berghei ANKA infected in NMRI mouse assessed as reduction in parasitemia at 3 mg/kg, po qd for 4 consecutive days measured at day 7 post infection by flow cytometry analysis; assay type: functional; set-up: scale not given: the % may be the effect or the level left; conditions: time 4 day

Nc1ncc(-c2ccc(C(=O)O)cc2)nc1-c1ccc(C(F)(F)F)cc1
remaining at 0.5 h, 0.1 µM [1]: > 90% | remaining at 0.5 h, 0.1 µM [2]: > 90% | Activity (Plasmodium berghei [3]): 99.9% | ED90 (Plasmodium berghei [4]): 0.56 mg/kg | solubility thermodynamic at 2 h [5]: 95 µM (≈ 34.1 µg/mL) | IC50 [6]: > 33000 nM | AUC at 96 h [7]: 79.7 µM·h | MSD (Plasmodium berghei [8]): >30 days | ED90 (Plasmodium falciparum [9]): < 0.1 mg/kg | IC50 (Plasmodium falciparum [10]): 33 nM | IC50 (Plasmodium falciparum [11]): 729 nM | solubility thermodynamic at 2 h [12]: < 5 µM | selectivity ratio (hERG (KCNH2)): > 1000 | bioavailability [13]: 94% | IC50 (Plasmodium berghei [14]): 51 nM | selectivity ratio [15]: > 1800 | IC50 (Plasmodium falciparum [16]): 32 nM | Cave [17]: 3.5 µM | MSD (Plasmodium berghei [18]): 14 days | Cmax [19]: 5 µM | remaining at 0.5 h, 0.1 µM [20]: > 90% | AUC (Plasmodium falciparum [21]): 200 ng·h/mL | IC50 (Plasmodium falciparum [22]): 649 nM | Activity (Plasmodium berghei [23]): 99.9%
